This passage reports Activity and EC50 results from ChEMBL document CHEMBL5634122, “Integrated fragment-based drug design and virtual screening techniques for exploring the antidiabetic potential of thiazolidine-2,4-diones: Design, synthesis and in vivo studies” (Eur J Med Chem, 2023).

Data set [1] can be described thus: Toxicity in Swiss albino mouse assessed as reduction in body weight at 10 mg/kg, po measured for 15 days. The data set is classed as organism-based. As to conditions: in vivo, 360 h, time 15 day.
The test system of a further data set is HEK293. The data set is described as follows: Cytotoxicity against HEK293 cells assessed as reduction in cell viability at 100 to 8000 nM incubated for 24 hrs by MTT assay. The class given is toxicity, cell-based. The following applies: human, hek293, 24 h, 8 µM, dose 100-8000 nM. In general terms: Formazan colour is commonly taken as a measure of viable cells.

Data set [2] is described as follows: Toxicity in Zebra fish assessed as change in body weight at 10 mg/kg measured after 10 days. As to conditions: zebrafish, in vivo, 240 h, time 10 day. The data set is classed as organism-based, Danio rerio.
In data set [3] the target is T1, Peroxisome proliferator-activated receptor gamma (Homo sapiens, UniProt P37231).
T1 sequence (P37231 whole entry): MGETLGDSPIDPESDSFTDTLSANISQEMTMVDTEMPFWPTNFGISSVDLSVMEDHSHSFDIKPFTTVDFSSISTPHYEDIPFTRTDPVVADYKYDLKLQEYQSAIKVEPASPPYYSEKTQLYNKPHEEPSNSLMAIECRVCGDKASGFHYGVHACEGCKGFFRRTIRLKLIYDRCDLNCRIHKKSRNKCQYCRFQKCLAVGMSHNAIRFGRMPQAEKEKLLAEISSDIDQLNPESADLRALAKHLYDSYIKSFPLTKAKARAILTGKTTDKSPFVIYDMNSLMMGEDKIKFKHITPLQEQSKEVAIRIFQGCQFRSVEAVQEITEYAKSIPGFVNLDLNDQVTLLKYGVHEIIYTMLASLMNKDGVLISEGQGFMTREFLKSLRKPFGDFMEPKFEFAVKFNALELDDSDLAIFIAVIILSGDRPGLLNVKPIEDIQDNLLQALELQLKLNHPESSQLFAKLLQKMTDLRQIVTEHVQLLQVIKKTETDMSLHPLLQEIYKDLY
The data set is described as follows: Agonist activity at PPARgamma in HEK293 cells assessed as transactivation incubated for 5 to 10 mins by microplate reader analysis. The data set is classed as cell-based.

The test system of data set [4] is Mus musculus. The data set is described as follows: Antidiabetic activity in STZ-induced Swiss albino diabetic mouse model assessed as blood glucose levels at 36 mg/kg, po measured immediately by oral glucose tolerance test (reference value: 234.5 mg/dl). The data set is classed as functional.
Data set [5] deals with Mus musculus. The data set is described as follows: Antidiabetic activity in STZ-induced Swiss albino diabetic mouse model assessed as increase in total cholesterol level in serum at 36 mg/kg, po (reference value: 51.16 +/- 6.89 mg/dl). The data set is classed as functional.
In data set [6] the test system is Mus musculus. In words: Antidiabetic activity in STZ-induced Swiss albino diabetic mouse model assessed as blood glucose levels at 36 mg/kg, po measured on day 1,3,5,7 and 15 by glucometer. The class given is functional. The following applies: time 15 day.
For the next data set, the system named is Danio rerio. In words: Antidiabetic activity in STZ-induced Zebra fish diabetic model assessed as blood glucose level at 36 mg/kg measured after 10 days. The class given is functional. As to conditions: time 10 day.
Data set [7] relates to Mus musculus. The data set is described as follows: Antidiabetic activity in STZ-induced Swiss albino diabetic mouse model assessed as increase in HDL level in serum at 36 mg/kg, po (reference value: 26 +/- 4.83 mg/dl). The class given is functional.
Data set [8] concerns Mus musculus. In words: Antidiabetic activity in STZ-induced Swiss albino diabetic mouse model assessed as reduction in triglyceride level in serum at 36 mg/kg, po (reference value: 131.83 +/- 12.12 mg/dl). The data set is classed as functional.
The test system of data set [9] is Mus musculus. In words: Antidiabetic activity in STZ-induced Swiss albino diabetic mouse model assessed as reduction in LDL level in serum at 36 mg/kg, po (reference value: 61.83 +/- 4.08 mg/dl). The class given is functional.
For data set [10], the system named is Mus musculus. In words: Antidiabetic activity in STZ-induced Swiss albino diabetic mouse model assessed as blood glucose levels at 36 mg/kg, po measured after 60 mins by oral glucose tolerance test (reference value: 199.16 mg/dl). The data set is classed as functional. As to conditions: 1 h.
The test system of data set [11] is Mus musculus. In words: Antidiabetic activity in STZ-induced Swiss albino diabetic mouse model assessed as blood glucose levels at 36 mg/kg, po measured after 30 mins by oral glucose tolerance test (reference value: 213.5 mg/dl). The data set is classed as functional. As to conditions: 0.5 h.
The test system of data set [12] is Mus musculus. The data set is described as follows: Antidiabetic activity in STZ-induced Swiss albino diabetic mouse model assessed as blood glucose levels at 36 mg/kg, po measured after 120 mins by oral glucose tolerance test. The following applies: 2 h. The data set is classed as functional.
Data set [13] in a line: Toxicity in Swiss albino mouse assessed as reduction in body weight at 36 mg/kg, po measured for 15 days. The data set is classed as organism-based. The following applies: in vivo, 360 h, time 15 day.

SMILES strings stand for the structures.

`Cc1ccc(CN2C(=O)S/C(=C\c3ccc(Nc4cccc(Cl)c4)s3)C2=O)cc1`: the Activity result (in data set [1]; in the data set on HEK293; in data set [2]) was “Non-Toxic” each time.
One may read the EC50 as the concentration at which the effect is half-maximal. `Cc1ccc(CN2C(=O)S/C(=C\c3ccc(Nc4ccc([N+](=O)[O-])cc4)s3)C2=O)cc1`: the EC50 in [3] was determined as 1550 nM. Further, the Activity entry in the data set on HEK293 is recorded as “Non-Toxic”.
Take `Cc1ccc(CN2C(=O)S/C(=C\c3ccc(Oc4ccc5ccccc5c4)s3)C2=O)cc1`: in [3], the EC50 is 3570 nM. Also, in the data set with HEK293, the Activity result was “Non-Toxic”.
With `COc1cccc(CN2C(=O)S/C(=C\c3ccc(Nc4ccc(Cl)cc4)cc3)C2=O)c1`, in the data set with HEK293, the Activity result is recorded as “Non-Toxic”.
For `Cc1ccc(CN2C(=O)S/C(=C\c3ccc(Oc4ccc([N+](=O)[O-])cc4)s3)C2=O)cc1`, in [3], the half-maximal effective concentration (EC50) is 1540 nM. Besides, the Activity result in the data set on HEK293 is on record as “Non-Toxic”.
Take `Cc1ccc(CN2C(=O)S/C(=C\c3ccc(Nc4ccccc4Cl)s3)C2=O)cc1`: the Activity entry (with HEK293; in data set [2]) was “Non-Toxic” in each case.
Consider `Cc1ccc(CN2C(=O)S/C(=C\c3ccc(Nc4ccc(Cl)cc4)cc3)C2=O)cc1`, for which, in [3], the 50% effective concentration (EC50) stood at 1360 nM. For the same molecule, the Activity entry in the data set on HEK293 is on record as “Non-Toxic”.
Take `Cc1ccc(CN2C(=O)S/C(=C\c3ccc(Nc4ccc(Cl)cc4)s3)C2=O)cc1`: the half-maximal effective concentration (EC50) in data set [3] stood at 1470 nM. For the same molecule, in the data set on HEK293, the Activity entry is recorded as “Non-Toxic”.
With `Cc1ccc(CN2C(=O)S/C(=C\c3ccc(OCc4ccccc4)s3)C2=O)cc1`, the EC50 in data set [3] is 2010 nM. For the same molecule, the Activity result in the data set with HEK293 is recorded as “Non-Toxic”.
For the molecule `COc1cccc(CN2C(=O)S/C(=C\c3ccc(Nc4cccc(Cl)c4)cc3)C2=O)c1`, the Activity entry with HEK293 is given as “Non-Toxic”.
With `Cc1ccc(CN2C(=O)S/C(=C\c3ccc(Nc4ccccc4[N+](=O)[O-])s3)C2=O)cc1`, in the data set with HEK293, the Activity result was “Non-Toxic”.
Consider `Cc1ccc(CN2C(=O)S/C(=C\c3ccc(Oc4ccccc4)s3)C2=O)cc1`, for which the 50% effective concentration (EC50) in data set [3] stood at 2740 nM. The Activity entry in the data set with HEK293 is reported as “Non-Toxic”.
Consider `CCc1ccc(CCOc2ccc(CC3SC(=O)NC3=O)cc2)nc1` (centres undefined) [PIOGLITAZONE], for which the Activity with Mus musculus [4] is 234.8 mg/dL; in the data set with Mus musculus [5] it was 51.16 mg/dL; in the data set on HEK293, “Non-Toxic”; with Mus musculus [6], 132.2 mg/dL; in the data set on Danio rerio, 112 mg/dL; with Mus musculus [7], 26 mg/dL. Further, the Activity in the data set with Mus musculus [8] is 52 mg/dL; in the data set with Mus musculus [9], 30.16 mg/dL; in the data set with Mus musculus [10], 150.83 mg/dL; with Mus musculus [11] it was 214.16 mg/dL; with Mus musculus [12], 112 mg/dL; in data set [13], “Non-Toxic”.
